Data taken from patent US10739333B2, “Methods of BH3 profiling” (Dana-Farber Cancer Institute, Inc., priority 2013, dated 2020).

Legend:
MDA-MB-231 = assay: BH3 profiling in pre-made frozen versus freshly prepared plates (FIG. 5); format: cell-based; conditions: responsive cells MDA-MB-231
Source text: Also included in the invention are kits for performing BH3 Profiling using whole cells. The kit consists of a multi-well plate containing staining components in a mitochondrial buffer and a tube of mitochondrial buffer for the suspension and dispensing of cells into the plate for analysis. Each well of the multi-well plate contains a mixture of JC-1 dye, oligomycin, 2-mercaptoethanol, digitonin, and a peptide or small molecule at twice their final concentration, Optionally the plate and suspension buffer tube can be frozen for later use along with the suspension buffer tube. To use, the plate and buffer tube are thawed and brought to room temperature. Cells are suspended in buffer, dispensed into the wells of the plate, and analyzed in a fluorescence plate reader using the JC-1 red fluorescence at 590 nm with excitation at 545 nm.

SuDHL4 cell line = assay: miBH3 profile of the SuDHL4 cell line (FIG. 4); format: cell-based; conditions: FIG. 4A, matches other BH3 profiling methods in FIG. 4B
Experimental: BH3 profiling can be accomplished at the single cell level by immobilizing cells on a solid surface. Optionally the solid surface is polyamine or poly-lysine coated. Immobilized cells are permeabilized as described above. The cells are then contacted with BH3 peptides and/or test agents. After the cells have been treated for a predetermined period of time such as 45-90 minutes, the cells are fixed and further permeabilized by methods known in the art. For example the cells are fixed with formaldehyde and further permeabilized with methanol or Triton X-100 (t-Octylphenoxypolyethoxyethanol). Outer membrane permeabilization is determined by intracellular staining for molecules from the mitochondrial inter-membrane space and a mitochondrial marker. Examples of molecules that can be measured include cytochrome c, SMAC/Diablo, Omi, adenylate kinase-2 or apoptosis inducing factor (AIF). A mitochondrial marker includes MnSOD. Stained cells can be counterstained with nuclear stains such as DAPI. Optionally other intracellular and extracellular markers can be measured. […]
MicroBH3 (miBH3) is a BH3 profiling method where the measurement of the mitochondrial effect of […] peptides have on individual cells by microscopy. […] Fixed cells by this method can be readily stopped at the fixation step and can be analyzed weeks after acquisition as well as readily re-analyzed if needed.

Substance: BAD: BH3 domain peptide LWAAQRYGRELRRMSDEFEGSFKGL, SEQ ID NO 4
- response to peptide treatment in frozen and freshly prepared plates (MDA-MB-231): comparable response
- release of cytochrome c / loss of correlation between cytochrome c and MnSOD channels (SuDHL4 cell line): Release of cytochrome c and loss of correlation
